According to US20180318287A1, “Imidazo[4,5-c]quinolin-2-one Compounds and Their Use in Treating Cancer” (ASTRAZENECA AB, priority 2015, published 2018):
Read-outs that look alike come from different tables or passages of the source.

Tests used:
Type in all cases: cell-based
[1] = target: T1, ATM kinase (Homo sapiens, UniProt Q13315); test: Assay a): ATM cellular potency (pATM Ser1981 in irradiated HT29 cells)
T1 construct: endogenous in cells; host or cells: HT29 cells (ECACC #85061109)
Method: Most ATM molecules in the cell are rapidly phosphorylated on this site after doses of radiation as low as 0.5 Gy, and binding of a phosphospecific antibody is detectable after the introduction of only a few DNA double-strand breaks in the cell.
The rationale of the p ATM assay is to identify inhibitors of ATM in cells. HT29 cells are incubated with test compounds for 1 hr prior to X-ray-irradiation. 1 h later the cells are fixed and stained for p ATM (Ser1981). The fluorescence is read on the arrayscan imaging platform.
The following morning compounds of Formula (I) in 100% DMSO were added to assay plates by acoustic dispensing. After 1 h incubation at 37° C. and 5% CO2, plates (up to 6 at a time) were irradiated using the X-RAD 320 instrument (PXi) with equivalent to ˜600cGy. Plates were returned to the incubator for a further 1 h. […] Then 20 μl of 0.1% Triton X100 in PBS was added and incubated for 20 minutes at r.t., to permeabalise cells. Then the plates were washed once with […] PBS, using a Biotek EL405 plate washer.
After 1 h incubation at r.t., the plates were washed three times with 50 μl/well PBS, using a Biotek EL405 plate washer, and plates were sealed and kept in PBS at 4° C. until read. Plates were read using an ArrayScan VTI instrument, using an XF53 filter with 10× objective.

[2] = target: T2, ATR kinase (Homo sapiens, UniProt Q13535); test: Assay b): ATR cellular potency (pChk1 Ser345 in HT29 cells after 4NQO)
T2 construct: endogenous in cells; host or cells: HT29 cells (ECACC #85061109)
Method: ATR is a PI 3-kinase-related kinase which phosphorylates multiple substrates on serine or threonine residues in response to DNA damage during or replication blocks. Chk1, a downstream protein kinase of ATR, plays a key role in DNA damage checkpoint control. Activation of Chk1 involves phosphorylation of Ser317 and Ser345 (the latter regarded as the preferential target for phosphorylation/activation by ATR).
The following morning compound of Formula (I) in 100% DMSO were added to assay plates by acoustic dispensing. After 1 h incubation at 37° C. and 5% CO2, 40 nl of 3 mM 4NQO in 100% DMSO was added to all wells by acoustic dispensing, except minimum control wells which were left untreated with 4NQO to generate a null response control. Plates were returned to the incubator for a further 1 h. […] Then 20 μl of 0.1% Triton X100 in PBS was added and incubated for 10 minutes at r.t., to permeabalise cells. Then the plates were washed once with 50 μl/well PBS, using a Biotek EL405 plate washer.
After 2 h incubation at r.t., the plates were washed three times with 50 μl/well PBS, using a Biotek EL405 plate washer, and plates were then sealed with black plate seals until read. Plates were read using an ArrayScan VTI instrument, using an XF53 filter with 10× objective.

[3] = target: T3, mTOR (Homo sapiens, UniProt P42345); test: Assay d): mTOR cellular potency (phospho-AKT Ser473 in MDA-MB-468 cells)
T3 construct: phosphorylation of the Akt protein at Ser473 (AKT lies downstream of PI3Kα in the signal transduction pathway) in the MDA-MB-468 cells; endogenous in cells; host or cells: MDA-MB-468 cells (ATCC HTB 132)
Method: This assay was used to measure mTOR inhibition in cells. The aim of the phospho-AKT cell based mechanism of action assay using the Acumen Explorer is to identify inhibitors of either PI3Kα or mTOR-Rictor (Rapamycin insensitive companion of mTOR). This is measured by any decrease in the phosphorylation of the Akt protein at Ser473 (AKT lies downstream of PI3Kα in the signal transduction pathway) in the MDA-MB-468 cells following treatment with compound.
MDA-MB-468 cells (human breast adenocarcinoma #ATCC HTB 132) were seeded at 1500 cells/well in 40 μl of DMEM containing 10% FBS and 1% glutamine into Greiner 384 well black flat-bottomed plates. Cell plates were incubated for 18 h in a 37° C. incubator before dosing with compounds of Formula (I) in 100% DMSO using acoustic dispensing. Compounds were dosed in a 12 point concentration range into a randomised plate map. Control wells were generated either by dosing of 100% DMSO (max signal) or addition of a reference compound (a PI3K-βinhibitor) that completely eliminated the pAKT signal (min control). Plates were incubated at 37° C. for 2 h; cells were then fixed by the addition of 10 μl of a 3.7% formaldehyde solution. After 30 minutes the plates were washed with PBS using a Tecan PW384 plate washer. Wells were blocked and cells permeabilised with the addition of 40 μl of PBS containing 0.5% Tween20 and 1% Marvel™ (dried milk powder) and incubated for 60 minutes at r.t. The plates were washed with PBS containing 0.5% (v/v) Tween20 and 20 μl rabbit anti-phospho AKT Ser473 (Cell Signalling Technologies, #3787) in same PBS-Tween+1% Marvel™ was added and incubated overnight at 4° C.
Plates were washed 3 times with PBS+0.05% Tween 20 using a Tecan PW384. 20 μl of secondary antibody Alexa Fluor 488 anti-Rabbit (Molecular Probes, #A11008) diluted in PBS+0.05% Tween20 containing 1% Marvel™ was added to each well and incubated for 1 h at r.t. Plates were washed three times as before then 20 μl PBS added to each well and plates sealed with a black plate sealer.
The plates were read on an Acumen plate reader as soon as possible, measuring green fluorescence after excitation with 488 nm laser. Using this system IC50 values were generated and quality of plates was determined by control wells. Reference compounds were run each time to monitor assay performance.

[4] = HT29 cells, X-ray irradiation, pATM Ser1981; Table 2; read-out: Assay a) ATM Cell IC50
[5] = HT29 cells, 4NQO, pChk1 Ser345; Table 2; read-out: Assay b) ATR Cell IC50
[6] = MDA-MB-468 cells, phospho-AKT Ser473, 2 h; Table 2; read-out: Assay d) mTOR Cell IC50
[7] = HT29 cells, X-ray irradiation, pATM Ser1981; Table 3 comparative data; read-out: Assay a) ATM Cell IC50
[8] = HT29 cells, 4NQO, pChk1 Ser345; Table 3 comparative data; read-out: Assay b) ATR Cell IC50
[9] = MDA-MB-468 cells, phospho-AKT Ser473, 2 h; Table 3 comparative data; read-out: Assay d) mTOR Cell IC50

T1 sequence (Q13315 whole entry): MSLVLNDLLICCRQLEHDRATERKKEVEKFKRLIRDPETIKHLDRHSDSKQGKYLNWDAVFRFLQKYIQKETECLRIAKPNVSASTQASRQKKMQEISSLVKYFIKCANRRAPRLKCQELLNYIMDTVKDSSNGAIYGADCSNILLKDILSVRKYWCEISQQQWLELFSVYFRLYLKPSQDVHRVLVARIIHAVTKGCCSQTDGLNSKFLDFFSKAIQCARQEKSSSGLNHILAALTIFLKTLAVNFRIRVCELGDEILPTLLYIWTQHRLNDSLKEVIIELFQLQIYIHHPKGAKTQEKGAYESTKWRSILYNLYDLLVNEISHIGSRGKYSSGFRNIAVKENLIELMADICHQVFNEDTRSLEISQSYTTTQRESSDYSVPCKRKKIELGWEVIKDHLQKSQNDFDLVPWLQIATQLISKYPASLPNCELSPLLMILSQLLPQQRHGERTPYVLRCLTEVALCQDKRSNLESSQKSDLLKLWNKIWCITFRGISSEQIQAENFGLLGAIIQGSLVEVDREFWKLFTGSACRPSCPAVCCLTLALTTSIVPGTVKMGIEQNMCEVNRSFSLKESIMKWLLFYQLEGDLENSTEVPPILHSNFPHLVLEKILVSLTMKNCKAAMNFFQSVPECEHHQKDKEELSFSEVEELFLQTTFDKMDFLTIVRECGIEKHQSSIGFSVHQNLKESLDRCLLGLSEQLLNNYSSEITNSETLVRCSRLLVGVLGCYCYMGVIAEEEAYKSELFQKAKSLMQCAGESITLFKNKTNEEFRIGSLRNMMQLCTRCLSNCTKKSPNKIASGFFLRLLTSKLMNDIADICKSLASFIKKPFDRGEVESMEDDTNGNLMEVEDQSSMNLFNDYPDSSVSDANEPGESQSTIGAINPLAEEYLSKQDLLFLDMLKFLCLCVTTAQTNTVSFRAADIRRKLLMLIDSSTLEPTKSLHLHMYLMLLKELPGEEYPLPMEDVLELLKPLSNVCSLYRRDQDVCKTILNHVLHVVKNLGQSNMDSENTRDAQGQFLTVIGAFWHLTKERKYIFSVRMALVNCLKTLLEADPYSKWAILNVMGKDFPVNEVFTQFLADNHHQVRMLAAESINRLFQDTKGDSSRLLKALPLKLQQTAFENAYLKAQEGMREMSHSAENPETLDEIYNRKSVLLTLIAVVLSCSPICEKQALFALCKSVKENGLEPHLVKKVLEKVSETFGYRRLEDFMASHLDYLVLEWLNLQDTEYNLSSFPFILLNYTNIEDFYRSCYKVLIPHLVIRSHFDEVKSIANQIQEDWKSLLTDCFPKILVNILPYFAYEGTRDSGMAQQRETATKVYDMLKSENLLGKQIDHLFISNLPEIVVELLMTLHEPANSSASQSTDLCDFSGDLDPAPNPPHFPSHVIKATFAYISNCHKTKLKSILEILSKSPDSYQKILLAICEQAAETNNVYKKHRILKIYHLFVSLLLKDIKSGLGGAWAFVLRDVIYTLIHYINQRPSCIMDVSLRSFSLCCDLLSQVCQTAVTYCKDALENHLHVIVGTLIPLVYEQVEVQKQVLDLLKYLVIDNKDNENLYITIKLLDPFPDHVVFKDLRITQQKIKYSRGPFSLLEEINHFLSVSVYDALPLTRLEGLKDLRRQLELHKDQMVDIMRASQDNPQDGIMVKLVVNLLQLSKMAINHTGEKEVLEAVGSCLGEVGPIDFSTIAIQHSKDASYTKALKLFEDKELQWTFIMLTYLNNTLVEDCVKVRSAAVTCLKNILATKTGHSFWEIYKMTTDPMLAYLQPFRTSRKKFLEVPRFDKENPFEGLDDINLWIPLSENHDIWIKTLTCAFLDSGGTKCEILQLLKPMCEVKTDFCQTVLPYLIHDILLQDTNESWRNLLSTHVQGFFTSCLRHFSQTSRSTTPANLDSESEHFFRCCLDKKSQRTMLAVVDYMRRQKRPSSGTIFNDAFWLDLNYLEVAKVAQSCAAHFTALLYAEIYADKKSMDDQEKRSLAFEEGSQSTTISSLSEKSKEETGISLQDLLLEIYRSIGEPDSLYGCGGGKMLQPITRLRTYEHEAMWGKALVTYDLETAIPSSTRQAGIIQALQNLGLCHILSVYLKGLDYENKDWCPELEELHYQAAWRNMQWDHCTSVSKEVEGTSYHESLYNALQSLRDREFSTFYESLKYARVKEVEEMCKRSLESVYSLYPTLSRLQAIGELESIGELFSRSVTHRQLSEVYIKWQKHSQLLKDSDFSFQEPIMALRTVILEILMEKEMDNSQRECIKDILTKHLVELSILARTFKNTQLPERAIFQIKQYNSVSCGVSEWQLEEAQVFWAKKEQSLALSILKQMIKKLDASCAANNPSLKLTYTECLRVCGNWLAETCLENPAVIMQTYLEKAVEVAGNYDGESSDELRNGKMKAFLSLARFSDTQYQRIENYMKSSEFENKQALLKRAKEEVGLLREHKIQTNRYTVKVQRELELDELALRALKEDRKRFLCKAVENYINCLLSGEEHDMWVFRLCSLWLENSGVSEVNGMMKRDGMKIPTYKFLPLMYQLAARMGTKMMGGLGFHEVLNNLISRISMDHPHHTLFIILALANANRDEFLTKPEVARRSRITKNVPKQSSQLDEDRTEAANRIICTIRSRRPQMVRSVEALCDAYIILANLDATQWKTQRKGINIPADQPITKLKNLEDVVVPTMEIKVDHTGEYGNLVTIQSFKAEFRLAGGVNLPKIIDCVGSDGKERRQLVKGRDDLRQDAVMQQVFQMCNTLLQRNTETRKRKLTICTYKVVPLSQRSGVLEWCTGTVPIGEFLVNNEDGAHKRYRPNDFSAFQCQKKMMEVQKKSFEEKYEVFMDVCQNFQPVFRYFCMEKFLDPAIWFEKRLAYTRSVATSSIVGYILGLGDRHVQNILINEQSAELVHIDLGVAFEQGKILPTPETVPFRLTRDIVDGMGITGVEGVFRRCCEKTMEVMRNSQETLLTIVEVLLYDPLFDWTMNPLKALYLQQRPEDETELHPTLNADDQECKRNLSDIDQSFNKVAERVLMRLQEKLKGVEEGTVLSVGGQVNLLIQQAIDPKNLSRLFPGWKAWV

Structure (SMILES)	IC50 [1, 4] [nM]	IC50 [2, 5] [nM]	IC50 [3, 6] [nM]	IC50 [1, 7] [nM]	IC50 [2, 8] [nM]	IC50 [3, 9] [nM]
CO[C@@H]1CCC[C@H](n2c(=O)n(C)c3cnc4ccc(-c5ccc(OCCCN(C)C)cc5)cc4c32)C1 (relative stereo) [Example 33, 8-[4-[3-(dimethylamino)propoxy]phenyl]-1-[cis-3-methoxycyclohexyl]-3-methyl-imidazo[4,5-c]quinolin-2-one]	2.3	28000	1230	–	–	–
CO[C@@H]1CCC[C@H](n2c(=O)n(C)c3cnc4ccc(-c5ccc(OCCCN6CCCC6)cc5)cc4c32)C1 (relative stereo) [Example 39, 1-[cis-3-methoxycyclohexyl]-3-methyl-8-[4-(3-pyrrolidin-1-ylpropoxy)phenyl]imidazo[4,5-c]quinolin-2-one]	–	–	899	–	–	–
CO[C@H]1CC[C@H](n2c(=O)n(C)c3cnc4ccc(-c5ccc(OCCCN6CCCC6)cc5)cc4c32)C1 (single isomer, unassigned) [Example 19, 1-[trans-3-methoxycyclopentyl]-3-methyl-8-[4-(3-pyrrolidin-1-ylpropoxy)phenyl]imidazo[4,5-c]quinolin-2-one]	0.29	18000	634	–	–	–
CO[C@@H]1CC[C@@H](n2c(=O)n(C)c3cnc4ccc(-c5ccc(OCCCN6CCCC6)cc5)cc4c32)C1 (single isomer, unassigned) [Example 20, 1-[trans-3-methoxycyclopentyl]-3-methyl-8-[4-(3-pyrrolidin-1-ylpropoxy)phenyl]imidazo[4,5-c]quinolin-2-one]	0.452	21300	5500	–	–	–
CO[C@H]1CC[C@H](n2c(=O)n(C)c3cnc4cc(F)c(-c5ccc(OCCCN6CCC6)cc5)cc4c32)C1 (single isomer, unassigned) [Example 23, 8-[4-[3-(azetidin-1-yl)propoxy]phenyl]-7-fluoro-1-[trans-3-methoxycyclopentyl]-3-methyl-imidazo[4,5-c]quinolin-2-one]	1.42	> 30000	5680	–	–	–
CO[C@@H]1CC[C@@H](n2c(=O)n(C)c3cnc4cc(F)c(-c5ccc(OCCCN6CCC6)cc5)cc4c32)C1 (single isomer, unassigned) [Example 24, 8-[4-[3-(azetidin-1-yl)propoxy]phenyl]-7-fluoro-1-[trans-3-methoxycyclopentyl]-3-methyl-imidazo[4,5-c]quinolin-2-one]	0.917	> 24600	5910	–	–	–
CO[C@H]1CCC[C@H](n2c(=O)n(C)c3cnc4ccc(-c5ccc(OCCCN6CCCC6)cc5)cc4c32)C1 (single isomer, unassigned) [Example 30, 1-[trans-3-methoxycyclohexyl]-3-methyl-8-[4-(3-pyrrolidin-1-ylpropoxy)phenyl]imidazo[4,5-c]quinolin-2-one]	1.62	15500	1700	–	–	–
CO[C@@H]1CC[C@H](n2c(=O)n(C)c3cnc4ccc(-c5ccc(OCCCN(C)C)cc5)cc4c32)C1 (single isomer, unassigned) [Example 34, 8-[4-[3-(dimethylamino)propoxy]phenyl]-1-[cis-3-methoxycyclopentyl]-3-methyl-imidazo[4,5-c]quinolin-2-one]	–	–	4660	–	–	–
CO[C@@H]1CC[C@H](n2c(=O)n(C)c3cnc4cc(F)c(-c5ccc(OCCCN(C)C)cc5)cc4c32)C1 (single isomer, unassigned) [Example 37, 8-[4-[3-(dimethylamino)propoxy]phenyl]-7-fluoro-1-[cis-3-methoxycyclopentyl]-3-methyl-imidazo[4,5-c]quinolin-2-one]	2.95	> 30000	4110	–	–	–
COC(=O)N1CCC(n2c(=O)n(C)c3cnc4ccc(-c5ccc(OC)nc5)cc4c32)CC1 [CN102372711A Compound 4, reference compound]	–	–	–	11.2	68.6	72.9
Cn1c(=O)n(C2CCOCC2)c2c3cc(-c4cnn(CCCO)c4)ccc3ncc21 [CN102399218A Compound 60, reference compound]	–	–	–	1760	> 77.1	2310
CC(C)n1c(=O)n(C)c2cnc3cc(F)c(-c4ccc(OCCCN5CCC5)cc4)cc3c21 [Example 4, 8-[4-[3-(azetidin-1-yl)propoxy]phenyl]-7-fluoro-1-isopropyl-3-methyl-imidazo[4,5-c]quinolin-2-one]	6.64	> 30000	9120	–	–	–
CO[C@H]1CC[C@H](n2c(=O)n(C)c3cnc4ccc(-c5ccc(OCCCN(C)C)cc5)cc4c32)C1 [Example 6, 8-[4-[3-(Dimethylamino)propoxy]phenyl]-1-[(1S,3S)-3-methoxycyclopentyl]-3-methyl-imidazo[4,5-c]quinolin-2-one]	–	–	781	–	–	–
CO[C@H]1C[C@@H](n2c(=O)n(C)c3cnc4ccc(-c5ccc(OCCCN(C)C)cc5)cc4c32)C1 [Example 11, 8-[4-[3-(dimethylamino)propoxy]phenyl]-1-(cis-3-methoxycyclobutyl)-3-methyl-imidazo[4,5-c]quinolin-2-one]	0.647	> 30000	6360	–	–	–
Cn1c(=O)n([C@H]2CCCOC2)c2c3cc(-c4ccc(OCCCN5CCCC5)cc4)ccc3ncc21 [Example 15, 3-methyl-8-[4-(3-pyrrolidin-1-ylpropoxy)phenyl]-1-[(3S)-tetrahydropyran-3-yl]imidazo[4,5-c]quinolin-2-one]	0.911	21600	2580	–	–	–
Cn1c(=O)n(C2CCOCC2)c2c3cc(-c4ccc(OCCCN5CCCCC5)cc4)ccc3ncc21 [Example 18, 3-methyl-8-[4-[3-(1-piperidyl)propoxy]phenyl]-1-tetrahydropyran-4-yl-imidazo[4,5-c]quinolin-2-one]	–	> 17800	2650	–	–	–
CO[C@H]1C[C@H](n2c(=O)n(C)c3cnc4ccc(-c5ccc(OCCCN(C)C)cc5)cc4c32)C1 [Example 21, 8-[4-[3-(dimethylamino)propoxy]phenyl]-1-(trans-3-methoxycyclobutyl)-3-methyl-imidazo[4,5-c]quinolin-2-one]	0.533	> 30000	5070	–	–	–
